Experimental findings from ChEMBL document CHEMBL4007467, “Effects of 6-paradol, an unsaturated ketone from gingers, on cytochrome P450-mediated drug metabolism” (Bioorg Med Chem Lett, 2017) are described below.

Format in all cases: ADME
The target in one data set is T1, CYP2A6 (Homo sapiens, UniProt P11509).
T1 sequence (P11509 whole entry): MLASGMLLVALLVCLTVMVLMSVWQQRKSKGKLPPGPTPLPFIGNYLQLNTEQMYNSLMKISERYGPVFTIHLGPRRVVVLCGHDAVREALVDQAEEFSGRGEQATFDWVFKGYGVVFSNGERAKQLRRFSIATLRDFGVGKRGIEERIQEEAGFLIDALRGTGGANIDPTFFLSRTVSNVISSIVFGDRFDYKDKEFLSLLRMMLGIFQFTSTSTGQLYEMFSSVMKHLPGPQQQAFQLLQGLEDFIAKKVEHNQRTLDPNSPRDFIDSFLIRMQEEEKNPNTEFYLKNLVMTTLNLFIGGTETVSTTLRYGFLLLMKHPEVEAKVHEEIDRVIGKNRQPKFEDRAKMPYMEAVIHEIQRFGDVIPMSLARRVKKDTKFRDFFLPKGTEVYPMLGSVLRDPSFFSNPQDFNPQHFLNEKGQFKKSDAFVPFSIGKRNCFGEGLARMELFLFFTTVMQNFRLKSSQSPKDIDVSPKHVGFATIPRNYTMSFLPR
In words: Inhibition of CYP2A6 in human liver microsomes assessed as enzyme-mediated metabolite formation at 0.1 uM using coumarin as substrate preincubated for 20 mins followed by substrate addition measured after 30 mins in presence of NADPH by LC-MS/MS analysis relative to control. Details: scale not given: the % may be the effect or the level left. Particulars: probe coumarin, read-out: Activity. (Liver microsomes are a subcellular fraction often used to study metabolism.)

The target in another data set is T2, CYP2C8 (Homo sapiens, UniProt P10632).
T2 sequence (P10632 whole entry): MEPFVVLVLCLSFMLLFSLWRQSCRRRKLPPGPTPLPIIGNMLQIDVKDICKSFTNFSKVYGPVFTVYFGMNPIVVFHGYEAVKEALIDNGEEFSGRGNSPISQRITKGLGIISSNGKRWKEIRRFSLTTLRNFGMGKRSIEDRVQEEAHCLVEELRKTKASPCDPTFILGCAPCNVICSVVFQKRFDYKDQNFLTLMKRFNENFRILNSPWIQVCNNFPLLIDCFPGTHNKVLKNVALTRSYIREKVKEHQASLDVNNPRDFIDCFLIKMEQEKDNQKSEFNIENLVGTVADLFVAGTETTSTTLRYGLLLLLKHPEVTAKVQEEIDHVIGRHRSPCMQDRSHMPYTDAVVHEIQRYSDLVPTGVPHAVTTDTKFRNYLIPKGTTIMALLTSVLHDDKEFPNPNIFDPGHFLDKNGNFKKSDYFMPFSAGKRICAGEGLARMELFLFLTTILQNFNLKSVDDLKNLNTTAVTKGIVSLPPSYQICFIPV
Nature of the data set: Inhibition of CYP2C8 in human liver microsomes assessed as enzyme-mediated metabolite formation at 1 uM using paclitaxel as substrate preincubated for 20 mins followed by substrate addition measured after 30 mins in presence of NADPH by LC-MS/MS analysis relative to control. Set-up: scale not given: the % may be the effect or the level left. Particulars: probe paclitaxel, read-out: Activity.

The next data set has as its target CYP3A4 (Homo sapiens, UniProt P08684). In words: Inhibition of CYP3A4 in human liver microsomes assessed as enzyme-mediated metabolite formation at 3 uM using testosterone as substrate preincubated for 20 mins followed by substrate addition measured after 30 mins in presence of NADPH by LC-MS/MS analysis relative to control. Particulars: probe testosterone, read-out: Activity. Details: scale not given: the % may be the effect or the level left.

Another data set addresses T3, CYP1A2 (Homo sapiens, UniProt P05177).
T3 sequence (P05177 whole entry): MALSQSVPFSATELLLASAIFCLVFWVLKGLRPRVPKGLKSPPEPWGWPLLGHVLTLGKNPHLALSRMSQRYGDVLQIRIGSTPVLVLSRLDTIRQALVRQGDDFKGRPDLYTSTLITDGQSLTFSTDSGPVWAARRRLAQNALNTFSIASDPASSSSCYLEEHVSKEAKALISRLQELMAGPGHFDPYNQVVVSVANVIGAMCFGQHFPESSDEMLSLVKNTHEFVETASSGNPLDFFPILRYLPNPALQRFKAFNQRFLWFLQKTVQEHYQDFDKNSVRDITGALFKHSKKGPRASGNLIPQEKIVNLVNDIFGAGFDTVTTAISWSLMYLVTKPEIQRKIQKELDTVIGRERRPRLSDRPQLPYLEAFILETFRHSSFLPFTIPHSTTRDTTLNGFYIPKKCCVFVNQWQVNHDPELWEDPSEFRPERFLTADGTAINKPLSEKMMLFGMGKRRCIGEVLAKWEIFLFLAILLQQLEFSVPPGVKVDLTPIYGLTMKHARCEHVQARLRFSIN
Nature of the data set: Inhibition of CYP1A2 in human liver microsomes assessed as enzyme-mediated metabolite formation at 1 uM using phenacetin as substrate incubated for 5 mins followed by NADPH addition measured after 30 mins by LC-MS/MS analysis relative to control. Details: scale not given: the % may be the effect or the level left. The conditions noted are these: probe phenacetin, read-out: Activity.

The target in the next data set is T4, CYP2B6 (Homo sapiens, UniProt P20813).
T4 sequence (P20813 whole entry): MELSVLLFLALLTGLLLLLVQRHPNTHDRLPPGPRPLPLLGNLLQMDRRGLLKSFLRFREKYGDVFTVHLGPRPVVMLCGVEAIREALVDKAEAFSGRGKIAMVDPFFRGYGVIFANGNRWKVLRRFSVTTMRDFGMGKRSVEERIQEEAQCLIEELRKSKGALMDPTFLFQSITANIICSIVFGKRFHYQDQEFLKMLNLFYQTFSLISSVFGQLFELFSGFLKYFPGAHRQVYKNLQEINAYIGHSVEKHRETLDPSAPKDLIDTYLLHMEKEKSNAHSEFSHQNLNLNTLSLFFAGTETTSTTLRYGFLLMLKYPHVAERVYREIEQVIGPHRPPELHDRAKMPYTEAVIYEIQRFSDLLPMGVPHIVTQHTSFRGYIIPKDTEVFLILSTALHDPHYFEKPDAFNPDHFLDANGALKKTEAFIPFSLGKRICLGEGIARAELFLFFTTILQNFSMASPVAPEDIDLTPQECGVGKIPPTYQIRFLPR
Nature of the data set: Inhibition of CYP2B6 in human liver microsomes assessed as enzyme-mediated metabolite formation at 1 uM using bupropion as substrate incubated for 5 mins followed by NADPH addition measured after 30 mins by LC-MS/MS analysis relative to control. The conditions noted are these: probe bupropion, read-out: Activity. Details: scale not given: the % may be the effect or the level left.

The target in a further data set is Cytochrome P450 2C9 (Homo sapiens, UniProt P11712). Nature of the data set: Inhibition of CYP2C9 in human liver microsomes using diclofenac as substrate preincubated for 20 mins followed by substrate addition measured after 30 mins in presence of NADPH by LC-MS/MS analysis.
Cytochrome P450 2C9, sequence (P11712 whole entry): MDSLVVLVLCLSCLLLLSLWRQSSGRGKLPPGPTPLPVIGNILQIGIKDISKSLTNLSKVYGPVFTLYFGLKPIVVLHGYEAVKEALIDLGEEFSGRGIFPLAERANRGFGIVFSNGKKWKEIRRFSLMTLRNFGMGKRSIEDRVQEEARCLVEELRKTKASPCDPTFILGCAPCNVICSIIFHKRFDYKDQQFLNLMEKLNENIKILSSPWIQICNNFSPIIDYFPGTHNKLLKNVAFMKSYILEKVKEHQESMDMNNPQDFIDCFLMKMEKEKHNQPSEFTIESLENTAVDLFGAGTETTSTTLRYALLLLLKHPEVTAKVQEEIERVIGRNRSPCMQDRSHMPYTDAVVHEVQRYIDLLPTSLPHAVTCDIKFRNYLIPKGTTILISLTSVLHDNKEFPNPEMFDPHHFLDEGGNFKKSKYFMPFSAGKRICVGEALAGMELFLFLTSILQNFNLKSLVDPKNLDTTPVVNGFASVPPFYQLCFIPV
Data set [1] has as its target T5, CYP2C9 (Homo sapiens, UniProt P11712). Nature of the data set: Inhibition of CYP2C9 in human liver microsomes assessed as enzyme-mediated metabolite formation at 0.3 uM using diclofenac as substrate incubated for 5 mins followed by NADPH addition measured after 30 mins by LC-MS/MS analysis relative to control. Set-up: scale not given: the % may be the effect or the level left. The conditions noted are these: probe diclofenac, read-out: Activity.

Data set [2] deals with T5, CYP2C9. Nature of the data set: Inhibition of CYP2C9 in human liver microsomes assessed as enzyme-mediated metabolite formation at 30 uM using diclofenac as substrate incubated for 5 mins followed by NADPH addition measured after 30 mins by LC-MS/MS analysis relative to control. The conditions noted are these: probe diclofenac, read-out: Activity. Set-up: scale not given: the % may be the effect or the level left.

The target in the next data set is T6, Cytochrome P450 2B6 (Homo sapiens, UniProt P20813).
T6 sequence (P20813 whole entry): T4 sequence (P20813 whole entry)
In words: Inhibition of CYP2B6 in human liver microsomes using bupropion as substrate preincubated for 20 mins followed by substrate addition measured after 30 mins in presence of NADPH by LC-MS/MS analysis.

T5 sequence (P11712 whole entry): as above
CYP3A4, sequence (P08684 whole entry): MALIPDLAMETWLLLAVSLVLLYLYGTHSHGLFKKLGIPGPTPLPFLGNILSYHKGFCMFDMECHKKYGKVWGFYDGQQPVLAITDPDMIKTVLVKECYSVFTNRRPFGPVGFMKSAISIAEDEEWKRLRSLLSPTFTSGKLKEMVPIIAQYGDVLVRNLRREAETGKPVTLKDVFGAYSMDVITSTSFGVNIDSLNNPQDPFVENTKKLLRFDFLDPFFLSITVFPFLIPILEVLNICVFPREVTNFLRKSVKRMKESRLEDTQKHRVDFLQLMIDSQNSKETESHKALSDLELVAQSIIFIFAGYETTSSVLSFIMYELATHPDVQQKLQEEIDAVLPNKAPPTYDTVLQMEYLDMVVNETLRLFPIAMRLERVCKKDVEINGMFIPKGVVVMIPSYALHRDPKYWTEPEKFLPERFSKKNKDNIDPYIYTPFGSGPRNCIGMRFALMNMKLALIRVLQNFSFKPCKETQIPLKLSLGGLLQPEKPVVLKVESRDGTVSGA

In general, IC50 refers to the midpoint of a concentration-inhibition curve. As for `CCCCCCCC(=O)CCc1ccc(O)c(OC)c1`, the activity at 0.5 h, 0.1 µM on CYP2A6 came to 96.5%. Besides, the results for the activity at 0.5 h, 1 µM on CYP2C8, at CYP1A2 and on CYP2B6 were 61.5%, 79.2% and 63.2%, respectively. Moreover, at CYP3A4, the activity at 0.5 h, 3 µM is 95.8%. The IC50 stood at 9.9 µM on Cytochrome P450 2C9 and 6.3 µM at Cytochrome P450 2B6. Besides, the activity at 0.5 h, 0.3 µM at CYP2C9 [1] turned out to be 93.6%. In addition, at CYP2C9 [2], the activity at 0.5 h, 30 µM was 30.9%.
